Values belong to the molecule of their own block, whether it stands above or below them.
Experiments:
[1] = system: thrombus formation on cotton thread; assay: Antithrombotic activity: thrombus formation on cotton thread in extracorporeal circulation path; format: in vivo, Wistar male rats; conditions: oral, rat, 2 hours prior, mean ± standard error, control 25.9 ± 1.2
Protocol: Effect of a test compound on thrombus formation on cotton thread which was kept in an extracorporeal circulation path for the artery and vein in anesthesized rats was examined in a manner similar to the method of Smith et al. [Br. J. Pharmacol., 77, 29 (1982)].
Wistar male rats weighing 250 to 400 g were anesthesized by intraperitoneal administration of sodium pentobarbital at a dose of 30 mg/kg and an extracorporeal circulation path made of a polyethylene tube having a length of 30 cm extending from the right carotid artery to the left jugular vein was installed. Cotton thread (No. 30) having a length of 5.5 cm was inserted into the circulation path and a weight of thrombus formed on the cotton thread during blood perfusion for 15 minutes was measured. Similar operations were performed twice and the total weight of thrombus formed by the two blood perfusions was shown as the weight of thrombus. […]

[2] = biological target: T1, TXA2 /prostaglandin H2 receptor (Cavia porcellus, UniProt A0A286Y4I8); assay: Anti-aggregatory effect: inhibition of platelet aggregation induced by U-46619 (TXA2-antagonizing action); format: cell-based, guinea pig (Hartley strain); conditions: minimum concentration inhibiting aggregation by 30% or more; U-46619 0.5-1 μM; guinea pig PRP
T1 construct: platelet rich plasma (PRP) was obtained; endogenous in cells; host or cells: guinea pig (Hartley) platelets in platelet rich plasma
T1 sequence (A0A286Y4I8 1-347): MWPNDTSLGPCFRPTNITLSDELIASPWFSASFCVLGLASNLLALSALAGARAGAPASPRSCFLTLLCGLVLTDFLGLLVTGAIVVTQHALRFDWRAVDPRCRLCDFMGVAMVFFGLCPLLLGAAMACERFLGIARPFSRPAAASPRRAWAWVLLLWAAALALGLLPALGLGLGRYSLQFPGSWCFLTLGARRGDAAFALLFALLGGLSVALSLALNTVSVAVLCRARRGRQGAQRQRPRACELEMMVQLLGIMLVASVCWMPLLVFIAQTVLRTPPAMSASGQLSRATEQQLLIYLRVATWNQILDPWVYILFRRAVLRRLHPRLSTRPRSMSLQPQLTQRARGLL
Protocol: TEST ON ANTI A[…] (TXA2 -AN[…])
Using guinea pig platelet, influence of the compounds on platelet aggregation induced by U-46619 (9,11-dideoxy-9α,11a-methanoepoxyprostaglandin F2α; manufactured by Cayman Chemical Co., Ltd.) which was a TXA2 /prostaglandin H2 receptor stimulant was examined.
Male guinea pig (Hartley strain; body weight, 300 to 600 g) was anesthesized by intraperitoneal administration of sodium pentobarbital (30 mg/kg) and blood was collected from the descending aorta of the abdomen with a 1/10 volume of 3.8% trisodium citrate. By centrifugation (KC-70: manufactured by Kubota Co., Ltd.) at 800 rpm for 15 minutes, platelet rich plasma (PRP) was obtained, Platelet aggregation induced by U-46619 (0.5-1 μM) was determined by photometry [Born, G.V.R. et al., Nature (London), 194, 927-929 (1962)]. A test compound was pretreated for 3 minutes and the ability to inhibit aggregation was determined. The minimum concentration which inhibits platelet aggregation by 30% or more was defined as the minimum effective concentration (MEC) of the test compound.

TXA2 biosynthesis = TXA2 biosynthesis inhibitory test (bovine platelet microsome, TXB2 by radioimmunoassay); format: biochemical; conditions: in 10 μM
Protocol: TXA2 BIOSYNTHESIS INHIBITORY TEST
After a mixture of 70 μl (40 μg of protein, 100 mM Tris-hydrochloridebuffer, pH 7.4) of bovine platelet microsome and 10 μl (10% methanol-containing 100 mM Tris-hydrochloride buffer) of a test compound solution was settled at 0° C. for 5 minutes, 20 μl of prostaglandin H2 solution (0.1 nmol, in Tris-hydrochloride buffer described above containing 20% acetone) as substrate was added to the mixture. Five minutes after, 2.9 ml of stopping solution [100 mM, Trishydrochloride buffer containing 0.1 μM of OKY-1581; Tromb. Res. 23, 145 (1981)] was added to stop the reaction.
TXA2 was unstable in the buffer solution, and nonenzymatically converted to TXB2. An amount of thromboxane B2 (TXB2) formed in the reaction solution was determined by radioimmunoassay [F. A. Fitzpatrick et al., Methods in Enzymology, 86, 286 (1982)]. An inhibition rate of the test compound was calculated according to the following equation. [formula]
The amount of TXB2 formed in control refers to a value obtained when the same reaction was carried out, using a solvent containing no test compound.
The amount of TXB2 formed in blank refers to a value obtained when the reaction was carried out in the system in which the stopping solution was added prior to adding substrate.

dd strain male mice = assay: Acute toxicity test (MLD, mortality for seven days); format: in vivo; conditions: minimum lethal dose, 7 days; for Acute Toxicity (MLD) ip: intraperitoneal
Protocol: Using three dd strain male mice weighing 20±1 g, a test compound was orally (po; 300 mg/kg) or intraperitoneally (ip; 100 mg/kg) administered. MLD (the minimum lethal dose) was determined by observing the mortality for seven days after administration.

SMILES: O=C(O)COc1ccc(CCNS(=O)(=O)c2ccccc2)cc1 [BM13177]
Weight of Thrombus ([1]; 30 mg/kg): 24.8 ± 1.8 mg | Weight of Thrombus ([1]; 100 mg/kg, **P < 0.01): 18.9 ± 1.8 mg

SMILES: O=C(O)Cc1ccc(CCNS(=O)(=O)c2ccc(Cl)cc2)cc1 [BM13505, reference compound]
TXA2 Antagonizing Activity (MEC) [2]: 0.1 µg/mL | TXA2 Biosynthesis Inhibitory Activity Inhibition Rate (TXA2 biosynthesis): 8% | Acute Toxicity (MLD) ip (dd strain male mice): > 100 mg/kg | Acute Toxicity (MLD) po (dd strain male mice): > 300 mg/kg

SMILES: O=C(O)c1ccc2c(c1)C(NCc1cccnc1)c1ccccc1CO2 (stereo not drawn) [Compound 9c, 11-[(3-Pyridyl)methyl]amino-6,11-dihydrodibenz[b,e]oxepin-2-carboxylic acid]
TXA2 Antagonizing Activity (MEC) [2]: 30 µg/mL | TXA2 Biosynthesis Inhibitory Activity Inhibition Rate (TXA2 biosynthesis): 100% | Acute Toxicity (MLD) ip (dd strain male mice): > 100 mg/kg | Acute Toxicity (MLD) po (dd strain male mice): > 300 mg/kg

SMILES: O=C(O)c1ccc2c(c1)C(SCc1cccnc1)c1ccccc1CO2 (stereo not drawn) [Compound 14b, 11-[(3-Pyridyl)methyl]thio-6,11-dihydrodibenz[b,e]oxepin-2-carboxylic acid]
TXA2 Antagonizing Activity (MEC) [2]: 3 µg/mL | TXA2 Biosynthesis Inhibitory Activity Inhibition Rate (TXA2 biosynthesis): 100% | Acute Toxicity (MLD) ip (dd strain male mice): > 100 mg/kg | Acute Toxicity (MLD) po (dd strain male mice): > 300 mg/kg

SMILES: O=C(O)c1ccc2c(c1)C(=NCc1cccnc1)c1ccccc1CO2 [Compound 25b, 11-[(3-Pyridyl)methyl]imino-6,11-dihydrodibenz[b,e]oxepin-2-carboxylic acid]
TXA2 Antagonizing Activity (MEC) [2]: 1 µg/mL | TXA2 Biosynthesis Inhibitory Activity Inhibition Rate (TXA2 biosynthesis): 100% | Acute Toxicity (MLD) ip (dd strain male mice): > 100 mg/kg | Acute Toxicity (MLD) po (dd strain male mice): > 300 mg/kg

SMILES: O=C(O)c1ccc2c(c1)/C(=C/Cn1ccnc1)c1ccccc1CO2 [Compound E-37b', (E)-11-[2-(1-imidazolyl)ethylidene]-6,11-dihydrodibenz[b,e]oxepin-2-carboxylic acid 0.2 hydrate]
TXA2 Antagonizing Activity (MEC) [2]: 3 µg/mL | TXA2 Biosynthesis Inhibitory Activity Inhibition Rate (TXA2 biosynthesis): 94% | Acute Toxicity (MLD) ip (dd strain male mice): > 100 mg/kg | Acute Toxicity (MLD) po (dd strain male mice): > 300 mg/kg

TXA2 Antagonizing Activity (MEC) [2]: 0.1 µg/mL
SMILES: COc1ccc2c(c1)ncn2C/C=C1\c2ccccc2COc2ccc(C(=O)O)cc21 [Compound E-61b, (E)-11-[2-(5-Methoxy-1-benzimidazolyl)ethylidene]-6,11-dihydrodibenz[b,e]oxepin-2-carboxylic acid]
TXA2 Biosynthesis Inhibitory Activity Inhibition Rate (TXA2 biosynthesis): 1%

TXA2 Antagonizing Activity (MEC) [2]: 1 µg/mL
SMILES: COc1ccc2ncn(C/C=C3\c4ccccc4COc4ccc(C(=O)O)cc43)c2c1 [Compound E-62b, (E)-11-[2-(6-Methoxy-1-benzimidazolyl)ethylidene]-6,11-dihydrodibenz[b,e]oxepin-2-carboxylic acid]
TXA2 Biosynthesis Inhibitory Activity Inhibition Rate (TXA2 biosynthesis): 11%

SMILES: COc1cc2ncn(C/C=C3\c4ccccc4COc4ccc(C(=O)O)cc43)c2cc1OC [Compound E-101b, (E)-11-[2-(5,6-Dimethoxy-1-benzimidazolyl)ethylidene]-6,11-dihydrodibenz[b,e]oxepin-2-carboxylic acid]
TXA2 Antagonizing Activity (MEC) [2]: 0.3 µg/mL | TXA2 Biosynthesis Inhibitory Activity Inhibition Rate (TXA2 biosynthesis): 17% | Acute Toxicity (MLD) ip (dd strain male mice): > 100 mg/kg | Acute Toxicity (MLD) po (dd strain male mice): > 300 mg/kg

SMILES: Cn1cnnc1SC/C=C1\c2ccccc2COc2ccc(C(=O)O)cc21 [Compound E-156b, (E)-11-[2-[(4-Methyl-4H-1,2,4-triazol-3-yl)thio]ethylidene]-6,11-dihydrodibenz[b,e]oxepin-2-carboxylic acid]
TXA2 Antagonizing Activity (MEC) [2]: 1.0 µg/mL | TXA2 Biosynthesis Inhibitory Activity Inhibition Rate (TXA2 biosynthesis): -10% | Acute Toxicity (MLD) ip (dd strain male mice): > 100 mg/kg | Acute Toxicity (MLD) po (dd strain male mice): > 300 mg/kg

SMILES: CN(C)CC/C=C1/c2ccccc2COc2ccc(CC(=O)O)cc21 [KW 4679, reference compound]
TXA2 Antagonizing Activity (MEC) [2]: 30 µg/mL | TXA2 Biosynthesis Inhibitory Activity Inhibition Rate (TXA2 biosynthesis): 1% | Acute Toxicity (MLD) ip (dd strain male mice): > 100 mg/kg | Acute Toxicity (MLD) po (dd strain male mice): > 300 mg/kg

SMILES: C/C(=C\c1ccc(Cc2cccnc2)cc1)C(=O)O [OKY 1581, reference compound]
TXA2 Antagonizing Activity (MEC) [2]: 30 µg/mL | TXA2 Biosynthesis Inhibitory Activity Inhibition Rate (TXA2 biosynthesis): 100% | Acute Toxicity (MLD) ip (dd strain male mice): > 100 mg/kg | Acute Toxicity (MLD) po (dd strain male mice): > 300 mg/kg

— US4999363A, “Tricyclic compounds” (priority 1988, dated 1991)
